In patent US4657924A, “Nafazatrom as a lipoxygenase inhibitor” (priority 1983, dated 1987):

How the values were obtained:
[1] = test system: rabbit hearts; assay: Rabbit hearts perfused by the method of Langendorff, perfusion pressure
Protocol: The heart was removed from the rabbits (up to about 2 kg) under Nembutal anaesthesia and cannulas were attached at the aorta and at the a.pulmonalis. To measure the isovolumetric contractions, a silicon rubber balloon filled with liquid was inserted into the left ventricle via the left auricle. The balloon was connected to a liquid sensor (Statham P 23 Db) via a liquid bridge. The perfusion pressure was recorded with a pressure sensor, which was connected to the perfusion system via T-piece before the aorta cannula of the heart. The contraction force and perfusion pressure were recorded with a Gould 2600 S high-speed recorder. The hearts were stimulated electrically at a frequency of 180/minute and a stimulation duration of 5 mseconds.
Perfusion of the hearts was effected with Krebs-Henseleit solution (KH solution), which was gassed with carbogen (95% of O2, 5% of CO2) or with a gas mixture of 2% of O2, 5.6% of CO2 and the remainder N2. The perfusion volume was 20 ml/minute and was adjusted by a roller pump (Desaga, 132100). The nafazatrom and the platelet suspensions (obtained from the same rabbit from which the heart is removed) were added with the aid of infusion pumps (roller pumps, Braun-Melsungen), the solution or suspension being infused at a flow rate of 0.2 or 0.1 ml/minute from an infusion syringe via a Taigon tube and a fine cannula into the inlet tube shortly before the heart. The final concentration of the platelets was 1×10^7 /ml of KH solution. The solution flowing out of the heart (cannula in the a.pulmonalis) was collected periodically, under ice-cooling. To measure the concentrations of thromboxan as TXB2 and of prostacyclin as 6-keto-PGF1^α, determination of which was effected with the aid of radioimmunoassay, aliquot parts by volume were freeze-dried and taken up in one tenth of the original volume of water.

[2] = test system: v.jugularis, a.carotis and a.femoralis; conditions: Seuter et al., 1979; cited from earlier work

SMILES: CC1=NN(CCOc2ccc3ccccc3c2)C(=O)C1 [nafazatrom, 3-methyl-1-[2-(2-naphthyloxy)-ethyl]-2-pyrazolin-5-one]
- Perfusion pressure in % of the blank value, 3rd phase ([1]; as 2nd phase, 1.10^-5 g/ml of nafazatrom, 5 minutes): 80%
- Perfusion pressure in % of the blank value, 5th phase ([1]; as 3rd phase (reoxygenation), 1.10^-5 g/ml): 75%
- Perfusion pressure in % of the blank value, 4th phase ([1]; as 3rd phase, 2% of O2 (hypoxia), 10 minutes, 1.10^-5 g/ml): 63%
- rise in perfusion pressure caused by addition of platelets ([1]; first and second carbogen phase): significantly inhibits
- Perfusion pressure in % of the blank value, 2nd phase ([1]; normoxia, carbogen, 1.10^7 platelets/ml, 5 minutes, before addition of nafazatrom): 139%
- Perfusion pressure in % of the blank value, 1st phase ([1]; preliminary phase, carbogen, before addition of nafazatrom): 100%
- antithrombotic effectiveness [2]: effective arterially and venously
